Measured values from patent publication US20220127258A1, “AROMATIC RING OR HETEROAROMATIC RING COMPOUNDS, PREPARATION METHOD THEREFOR AND MEDICAL USE THEREOF” (The National Institutes of Pharmaceutical R&D Co., Ltd., priority 2019, published 2022).

Columns and labels:
[1] = system: cholestasis rat induced by ANIT; test: Efficacy on the cholestasis rat model induced by 1-naphthyl isothiocyanate (ANIT); assay type: in vivo, SD rats; parameters: ALT / AST / GGT / TBA: unit not given here; details: for level of ALT, AST, GGT and TBA in the serum of ANIT rat (in words): 3 and 10 mg/kg/d, conclusion of Test Example 2; for ALT / AST / GGT / TBA: serum, 4 days, ANIT rat
Method: Animals: SD rats, male, 7 to 8 weeks old, weight: 220 to 240 g, purchased from Beijing Vital River Laboratory Animal Technology Co., Ltd., SPF grade, Certificate No.: SCXK (Beijing) 2016-0011, license issuing administration: Beijing Municipal Commission of Science and Technology.
Sample formulation: The compound of the present invention was added to DMSO, and dissolved completely by ultrasound. 0.5% CMC-Na was added to constant volume (DMSO: 0.5% CMC-Na=1:99), and the solution was homogenized by ultrasound for later use.
After 3 to 5 days of acclimation, the animals were divided into 20 groups according to body weight: normal group, model group, Example 8 (3 mg/kg/d, 10 mg/kg/d) group, Example 11 (3 mg/kg/d, 10 mg/kg/d) group, Example 12 (3 mg/kg/d, 10 mg/kg/d) group, Example 14 (3 mg/kg/d, 10 mg/kg/d) group, Example 20 (3 mg/kg/d, 10 mg/kg/d) group, Example 22 (3 mg/kg/d, 10 mg/kg/d) group, Example 26 (3 mg/kg/d, 10 mg/kg/d) group, Example 28 (3 mg/kg/d, 10 mg/kg/d) group, and Example 29 (3 mg/kg/d, 10 mg/kg/d) group, with 10 rats for each group. Intragastric administration was conducted with an administration volume of 10 mL/kg, once a day, for a total of 4 days. On Day 2, ANIT (1-naphthyl isothiocyanate, Macklin, purity: 98%, item number: N814658, CAS number: 551-06-4, specification: 5 g/bottle, storage conditions: 2 to 8 degrees, batch number: C10116101) with a dose of 50 mg/kg and an administration volume of 5 mL/kg was administered intragastrically once to each animal (except for animals in the normal group) 4 hours after the administration. The animals were fasted on Day 4 morning. The animals were anesthetized by isoflurane inhalation using a small animal anesthesia machine. Blood was collected from the venous plexus behind the eyeball using a capillary glass tube (about 1 ml per animal), and then left to stand for about one hour. It was centrifuged at 3500 rpm for 10 minutes to obtain the serum. ALT, AST, GGT and TBA indexes as well as the plasma concentration of the compound were determined using an AU480 automatic biochemical analysis system (BECKMAN COULTER). Liver was collected, weighed, and cutted into pieces. Normal saline was added (liver weight: normal saline=1:2), and the mixture was homogenized and freezed. The concentration of the compound in liver was determined using an ultra performance liquid chromatograph (Shimadzu, LC 30AD) and triple quadrupole mass spectrometer (AB, TQ5500).

[2] = molecular target: T1, FXR (Homo sapiens, UniProt Q96RI1); test: FXR agonistic activity, luciferase assay; assay type: cell-based; details: luc2P-GAL4-HEK293 cells transfected with pBIND-FXR, 24 hours
T1 sequence (Q96RI1 262-486 limits assumed): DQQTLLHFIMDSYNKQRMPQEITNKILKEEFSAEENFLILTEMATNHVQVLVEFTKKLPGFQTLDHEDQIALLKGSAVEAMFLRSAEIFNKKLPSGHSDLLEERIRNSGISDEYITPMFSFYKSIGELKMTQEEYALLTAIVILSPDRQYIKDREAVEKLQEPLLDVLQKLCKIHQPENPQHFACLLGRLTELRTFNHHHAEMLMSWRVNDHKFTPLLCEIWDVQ
Method: The FXR agonistic activity of the compound of the present invention was evaluated using the luciferase assay.
The experimental process comprises the follows. The luc2P-GAL4-HEK293 stably transfected cell line (the cell line was established by transfecting pGL4.35 plasmid with HEK293 cells which was then subjected to Hygromycin B screening. The cell contained 9×GAL4 UAS and firefly luciferase reporter gene. The ligand-activated LBD-GAL4 DBD fusion protein can enter the nucleus to bind to 9×GAL4 UAS and activate the transcription of the downstream luciferase reporter gene) was transferred to a 96-well plate with […] per well. pBIND-FXR (Which was constructed by inserting FXR-LBD into pFN26A-BIND hRluc-neo Flexi® vector. The plasmid was 7.5 kb in size, Amp resistant, contained FXR-LBD, and can express FXR-LBD and GAL4 DBD fusion proteins) was transfected using X-tremeGENE HP transfection reagent. The ratio of plasmid to transfection reagent was 1 μg: 2 μl. The specific amount was 100 ng of plasmid and 0.2 μl of X-tremeGENE HP transfection reagent per well. The test compounds (the highest concentration of each compound was 30 μM, 3-fold dilution, a total of 10 concentrations) were added to induce the expression of luciferase. After 24 hours, the 96-well plate containing the test cells was taken out from the incubator, and placed at room temperature. Dual-Glo® Luciferase Reagent with the volume equal to the volume of the medium in the well (80 μl/well) was added to each well and mixed well. The plate was incubated at room temperature for 20 minutes to allow the cells to be fully lysed. All the liquid in the plate was transferred to a 96-well microtiter plate, and the firefly luciferin value was measured with a multi-function plate reader (manufacturer: Bio Tek (USA); model: Synergy4). Dual-Glo® a Stop & Glo® Reagent with the volume equal to the volume of the initial medium (80 μl/well) was added to each well and mixed well. The plate was incubated at room temperature for 10 minutes, and the renilla luciferin value was measured. The measurement order of renilla fluorescence should be the same as that of firefly fluorescence. Curve fitting and EC50 calculation were conducted using GraphPad Prism 5 software by nonlinear regression method. The fitting equation is: Y=Bottom+(Top−Bottom)/(1+10^((Log EC50−X)*HillSlope)), wherein EC50 refers to the semi-effective concentration, Top refers to the maximum effect, Bottom refers to the blank effect, and HillSlope refers to the slope.

[3] = Visual inspection of solubility of test sample in extracellular fluid; assay type: physicochemical; details: 1 nM to 1 μM in extracellular fluid pH 7.4, DMSO 0.1%
Method: Extracellular fluid: 140 mM NaCl, 3.5 mM KCl, 1 mM MgCl2, 2 mM CaCl2, 10 mM glucose, 10 mM HEPES, 1.25 mM NaH2PO4, pH=7.4 (adjusted by NaOH). The stock solution of the compound of Example 8 of the present invention (30.26 mM solution in DMSO) was successively diluted with 10 mL of extracellular fluid to obtain 0.3 μM, 1 μM, 3 μM, […], and 30 μM solutions. […] 10 mg of Cisapride was dissolved in 2066.29 μL of dimethyl sulfoxide (DMSO) to obtain a 10 mM stock solution. The Cisapride stock solution was successively diluted with dimethyl sulfoxide (DMSO) to obtain a total of 4 concentrations of 1 μM, 10 μM, 100 μM and 1 mM. Before the test, 10 μL of the diluent at each concentration was added to 10 mL of extracellular fluid to ensure that the DMSO concentration was 0.1%. The final working concentration of Cisapride was 1 nM, 10 nM, 100 nM and 1 μM.

SMILES	level of ALT, AST, GGT and TBA in the serum of ANIT rat (in words) [1]	ALT ([1]; 3 mg/kg/d intragastric)	AST ([1]; 3 mg/kg/d intragastric)	GGT ([1]; 3 mg/kg/d intragastric)	TBA ([1]; 3 mg/kg/d intragastric)	ALT ([1]; 10 mg/kg/d intragastric)	AST ([1]; 10 mg/kg/d intragastric)	GGT ([1]; 10 mg/kg/d intragastric)	TBA ([1]; 10 mg/kg/d intragastric)	EC50 [2] [nM]	solubility, visually inspected [3]
O=C(O)c1ccc(-c2nnc(N3[C@@H]4CC[C@H]3C[C@@H](OCc3c(-c5c(Cl)cccc5Cl)noc3C3CC3)C4)o2)cc1F [Example 12]	significantly reduce	122.5 ± 89.7	314.2 ± 237.9	2.2 ± 0.8	69.0 ± 66.7	54.7 ± 27.3	139.3 ± 34.6	1.9 ± 0.5	25.4 ± 14.3	100 to 500	
O=C(O)c1csc(-c2nnc(N3[C@@H]4CC[C@H]3C[C@@H](OCc3c(-c5c(Cl)cccc5Cl)noc3C3CC3)C4)o2)c1 [Example 20]		141.5 ± 101.4	400.2 ± 304.4	2.8 ± 1.2	119.5 ± 124.7	50.9 ± 22.4	139.8 ± 58.4	2.6 ± 0.5	16.1 ± 8.0	50 to 100	
O=C(O)c1ccc(-c2nnc(N3[C@@H]4CC[C@H]3C[C@@H](OCc3c(-c5ccccc5OC(F)(F)F)noc3C3CC3)C4)o2)cc1F [Example 26]	significantly reduce	62.2 ± 27.6	187.7 ± 50.4	1.9 ± 0.8	23.2 ± 10.1	50.0 ± 11.2	162.3 ± 27.7	1.4 ± 0.7	35.3 ± 13.2	100 to 500	
O=C(O)c1ccc(-c2nnc(N3[C@@H]4CC[C@H]3C[C@@H](OCc3c(-c5ccccc5OC(F)(F)F)noc3C3CC3)C4)o2)c(F)c1 [Example 29]	significantly reduce	82.0 ± 44.5	256.0 ± 168.8	2.3 ± 1.1	51.7 ± 65.2	77.8 ± 69.5	189.4 ± 76.9	1.9 ± 0.4	26.8 ± 13.6	100 to 500	
COc1cc(N)c(Cl)cc1C(=O)NC1CCN(CCCOc2ccc(F)cc2)CC1OC (centres unmarked) [Cisapride, reference compound]											completely dissolved without visible precipitation
O=C(O)c1cccc(-c2nnc(N3[C@@H]4CC[C@H]3C[C@@H](OCc3c(-c5ccccc5OC(F)(F)F)noc3C3CC3)C4)o2)c1 [Example 28]	significantly reduce	147.1 ± 66.2	342.7 ± 153.6	2.3 ± 0.5	66.2 ± 58.4	46.6 ± 12.1	150.8 ± 28.7	1.9 ± 0.5	20.5 ± 6.0	< 25	
